The record followed here is US20220347175A1, “PYRIDAZINONE DERIVATIVE” (Sumitomo Dainippon Pharma Co., Ltd., priority 2018, published 2022).

Assay [1] addresses T1, human Nav1.1 (Homo sapiens, UniProt P35498).
T1 construct: host or cells: HEK293
As to the kind of experiment: Amplification of Nav1.1-derived voltage-dependent sodium current (Nav1.1 current), cell line stably expressing human Nav1.1, automated patch clamp. Conditions: for activation at 10 µM / activation at 1 µM: read-out: Nav1.1 current amplification rate (%). The assay is classed as cell-based. The method, boiled down: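 Automated whole-cell voltage-clamp recordings used HEK293 cells stably expressing human Nav1.1, keeping only cells with >500 pA current, with currents evoked by ramp voltage. Compounds were applied in extracellular fluid with 1% DMSO, and amplification (%) was computed from peak current or AUC after versus before addition.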

For assay [2], the target named is T2, human Nav1.5 (Homo sapiens, UniProt Q14524).
T2 construct: expressed in transfected cells; host or cells: CHO-K1 (T-REx System, ThermoFisher Scientific)
As to the kind of experiment: Amplification of Nav1.5-derived voltage-dependent sodium current (Nav1.5 current), cell line stably expressing human Nav1.5, automated patch clamp. The assay is classed as cell-based. Conditions: for activation at 10 µM / activation at 1 µM: read-out: Nav1.5 current amplification rate (%). The protocol: Test 2: Evaluation of the Amplification in Nav1.5-Derived Voltage-Dependent Sodium Current (Nav1.5 Current) by Using a Cell Line Stably Expressing Human Nav1.5
A CHO-K1 cell line (Chinese hamster ovary) stably expressing human Nav1.5 (Gene Bank Accession No: P000326.2) was obtained by using purchased T-Rex System (ThermoFisher Scientific, USA), and used for the present test. The effect of test compounds on the amplification of Nav1.5 current was evaluated by using a cell line stably expressing human Nav1.5 and HTS automated patch clamp system, similarly in the method using Nav1.1. In other words, test compounds were added in an extracellular fluid which contained 1% DMSO and 500 nmol/L Tetrodotoxin (TTX), and evaluated as a change of the peak value of Nav1.5 current and the area under the curve (AUC). The induction and the measurement of Nav1.5 current, the pharmacologic effect on Nav1.5 current, and a method for pharmacological evaluation were carried out by the same method as in Nav1.1.

The mark [3] stands for this setting: compound 3 μmol/L, HEK293 stably expressing human Nav1.1.
The mark [4] stands for this setting: compound 3 μmol/L, CHO-K1 stably expressing human Nav1.5.
Where [5] appears, read: compound 1 μmol/L, HEK293 stably expressing human Nav1.1.
Where [6] appears, read: compound 1 μmol/L, CHO-K1 stably expressing human Nav1.5.
Where [7] appears, read: 10 μmol/L compound, change of the area under the curve of Nav1.1 current (Test Result 1).
[8] abbreviates: 10 μmol/L compound, change of the area under the curve of Nav1.5 current (Test Result 1).

T2 sequence (Q14524 1-2015 isoform Q14524-2): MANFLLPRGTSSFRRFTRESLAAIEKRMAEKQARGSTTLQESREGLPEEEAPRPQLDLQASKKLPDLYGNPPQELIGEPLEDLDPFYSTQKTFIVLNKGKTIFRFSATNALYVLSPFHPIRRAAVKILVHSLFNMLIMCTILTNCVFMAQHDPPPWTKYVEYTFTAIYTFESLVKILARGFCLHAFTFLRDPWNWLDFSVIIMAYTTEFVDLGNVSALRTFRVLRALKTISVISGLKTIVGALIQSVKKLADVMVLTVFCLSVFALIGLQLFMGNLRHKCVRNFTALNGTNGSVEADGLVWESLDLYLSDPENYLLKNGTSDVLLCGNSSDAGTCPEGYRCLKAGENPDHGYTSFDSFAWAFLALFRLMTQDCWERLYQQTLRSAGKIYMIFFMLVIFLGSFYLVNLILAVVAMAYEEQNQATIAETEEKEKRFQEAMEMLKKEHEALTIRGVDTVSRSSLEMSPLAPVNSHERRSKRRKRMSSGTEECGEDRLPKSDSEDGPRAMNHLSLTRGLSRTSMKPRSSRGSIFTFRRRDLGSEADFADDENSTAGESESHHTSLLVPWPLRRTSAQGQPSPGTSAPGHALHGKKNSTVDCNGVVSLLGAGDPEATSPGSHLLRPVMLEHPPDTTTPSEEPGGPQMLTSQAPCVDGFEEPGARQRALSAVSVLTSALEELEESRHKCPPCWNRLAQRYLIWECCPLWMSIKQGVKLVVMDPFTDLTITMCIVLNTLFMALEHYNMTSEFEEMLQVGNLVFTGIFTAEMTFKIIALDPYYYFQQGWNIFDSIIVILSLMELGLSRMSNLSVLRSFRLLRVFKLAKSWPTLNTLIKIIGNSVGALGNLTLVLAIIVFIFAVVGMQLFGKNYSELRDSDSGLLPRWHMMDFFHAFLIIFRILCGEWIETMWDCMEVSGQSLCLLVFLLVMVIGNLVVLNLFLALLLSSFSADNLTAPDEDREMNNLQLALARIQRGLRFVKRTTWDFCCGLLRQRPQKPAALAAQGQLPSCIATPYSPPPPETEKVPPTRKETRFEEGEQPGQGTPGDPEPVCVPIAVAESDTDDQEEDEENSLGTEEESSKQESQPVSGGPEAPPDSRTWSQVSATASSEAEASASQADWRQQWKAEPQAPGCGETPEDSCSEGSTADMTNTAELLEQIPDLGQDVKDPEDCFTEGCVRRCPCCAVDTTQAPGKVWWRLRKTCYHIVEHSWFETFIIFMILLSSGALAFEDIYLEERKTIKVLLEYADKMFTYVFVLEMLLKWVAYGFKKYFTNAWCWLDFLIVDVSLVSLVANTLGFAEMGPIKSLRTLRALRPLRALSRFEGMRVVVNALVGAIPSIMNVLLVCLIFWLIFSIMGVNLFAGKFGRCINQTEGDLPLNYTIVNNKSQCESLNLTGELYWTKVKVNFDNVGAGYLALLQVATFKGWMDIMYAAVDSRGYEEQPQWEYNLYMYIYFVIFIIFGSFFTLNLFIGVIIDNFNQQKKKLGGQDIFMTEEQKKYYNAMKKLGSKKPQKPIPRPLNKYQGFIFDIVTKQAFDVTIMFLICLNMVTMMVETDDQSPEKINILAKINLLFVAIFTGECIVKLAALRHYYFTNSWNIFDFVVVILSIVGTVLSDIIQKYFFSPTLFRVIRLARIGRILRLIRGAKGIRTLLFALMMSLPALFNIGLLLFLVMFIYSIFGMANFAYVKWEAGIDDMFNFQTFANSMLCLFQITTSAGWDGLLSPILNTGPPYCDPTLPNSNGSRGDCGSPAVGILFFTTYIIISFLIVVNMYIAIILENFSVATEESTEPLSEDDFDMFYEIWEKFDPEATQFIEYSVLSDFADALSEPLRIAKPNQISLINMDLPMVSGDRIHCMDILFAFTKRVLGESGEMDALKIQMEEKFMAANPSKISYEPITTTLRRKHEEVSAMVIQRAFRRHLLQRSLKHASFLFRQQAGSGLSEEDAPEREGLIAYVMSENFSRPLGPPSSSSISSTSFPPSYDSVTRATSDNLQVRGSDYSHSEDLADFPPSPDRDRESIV

In the case of `COc1ncc(N2CCN(C(=O)Cn3nc(C4=CCC(C)CC4)ccc3=O)CC2)cc1F` (stereo not shown) [Example 409], the “Nav1.1 current amplification rate (%)” value in assay [1] (setting [3]) is given as 244%. Also, in assay [2] (setting [4]), the “Nav1.5 current amplification rate (%)” value stood at 11%.

Consider `CC1CC=C(c2ccc(=O)n(CC(=O)N3CCc4c(CN5CC=CC5)cccc43)n2)CC1` (racemic) [Example 287], for which, in assay [1] (setting [5]), the “Nav1.1 current amplification rate (%)” value stood at 73%. Moreover, the “Nav1.5 current amplification rate (%)” value in assay [2] (setting [6]) is on record as 123%.

For `CC1(C)CN(c2ccc(=O)n(CC(=O)Nc3ccc4ocnc4c3)n2)CCC12CC2(F)F` (stereo not shown) [Example 214], the activation at 10 µM in assay [1] (setting [7]) is 64%; in assay [2] (setting [8]) it was -1%.

Take `Cc1ncccc1N1CCN(C(=O)Cn2nc(C3=CCC(C)CC3)ccc2=O)CC1` (stereo not shown) [Example 410]: the “Nav1.1 current amplification rate (%)” value in assay [1] (setting [3]) is given as 66%. Further, in assay [2] (setting [4]), the “Nav1.5 current amplification rate (%)” value is reported as 10%.

For `COc1cncc(C2=CCN(C(=O)Cn3nc(C4=CCC(C)CC4)ccc3=O)CC2)c1` (stereo not shown) [Example 403], the “Nav1.1 current amplification rate (%)” value in assay [1] (setting [7]) worked out at 270%. In assay [2] (setting [8]), the “Nav1.5 current amplification rate (%)” value is listed as 12%.

On to `CC1(C)CC=C(c2ccc(=O)n(CC(=O)Nc3ccn4ncnc4c3)n2)CC1` [Example 429, 2-[3-(4,4-dimethylcyclohex-1-en-1-yl)-6-oxopyridazin-1(6H)-yl]-N-([1,2,4]triazolo[1,5-a]pyridin-7-yl)acetamide], for which the activation at 1 µM came to 101% in assay [1] (setting [5]) and 28% in assay [2] (setting [6]).

As to `O=C(Cn1nc(N2CCC3(CCCC3)C2)ccc1=O)Nc1ccn2nccc2c1` [Example 169], the figures for the activation at 10 µM in assay [1] (setting [7]) and in assay [2] (setting [8]) were 155% and 43%, respectively.

For the compound `CC1CC=C(c2ccc(=O)n(CC(=O)N3CCc4c(C5CCN(C)C5)cccc43)n2)CC1` (mixture of isomers) [Example 269], in assay [1] (setting [3]), the “Nav1.1 current amplification rate (%)” value was determined as 127%. Besides, in assay [2] (setting [4]), the “Nav1.5 current amplification rate (%)” value came to 266%.

Take `COc1cc(C2=CCC(C)(C)CC2)nn(CC(=O)Nc2ccn3ccnc3c2)c1=O` [Example 456]: in assay [1] (setting [7]), the “Nav1.1 current amplification rate (%)” value was 224%. The “Nav1.5 current amplification rate (%)” value in assay [2] (setting [8]) stood at 29%.

As for `COc1cc(=O)n(CC(=O)N2CCc3c(N4CCOCC4)cccc32)nc1C1=CCC(C(F)(F)F)CC1` (racemic) [Example 476], the “Nav1.1 current amplification rate (%)” value in assay [1] (setting [7]) amounted to 343%. Also, the “Nav1.5 current amplification rate (%)” value in assay [2] (setting [8]) turned out to be 13%.

For `CC1(C)CCC=C(c2ccc(=O)n(CC(=O)Nc3ccc4ocnc4c3)n2)C1` [Example 129], the activation at 10 µM worked out at 314% in assay [1] (setting [7]) and 25% in assay [2] (setting [8]).

Take `CC1CC=C(c2ccc(=O)n(CC(=O)Nc3ccn4c(C5CC5)cnc4c3)n2)CC1` (racemic) [Example 335]: the “Nav1.1 current amplification rate (%)” value in assay [1] (setting [3]) turned out to be 187%. Further, the “Nav1.5 current amplification rate (%)” value in assay [2] (setting [4]) stood at 65%.

In the case of `Cc1ccc(-c2ccc(=O)n(CC(=O)N3CCc4cnccc43)n2)cc1` [Example 159], in assay [1] (setting [7]), the “Nav1.1 current amplification rate (%)” value worked out at 32%. Also, the “Nav1.5 current amplification rate (%)” value in assay [2] (setting [8]) is 26%.

In the case of `COc1cc(N2CCC3(CCC3)C2)nn(CC(=O)Nc2ccn3ccnc3c2)c1=O` [Example 213], the activation at 10 µM worked out at 136% in assay [1] (setting [7]) and 5% in assay [2] (setting [8]).

As to `CC1CCN(c2ccc(=O)n(CC(=O)Nc3cccc(-c4nccs4)c3)n2)CC1` [Example 80], in assay [1] (setting [7]), the “Nav1.1 current amplification rate (%)” value was 131%. Also, the “Nav1.5 current amplification rate (%)” value in assay [2] (setting [8]) is -3%.

As to `CC1CC=C(c2ccc(=O)n(CC(=O)N3CCc4c(C5CN(CCO)C5)cccc43)n2)CC1` (racemic) [Example 303], the “Nav1.1 current amplification rate (%)” value in assay [1] (setting [3]) was 67%. In assay [2] (setting [4]), the “Nav1.5 current amplification rate (%)” value amounted to 11%.

As to `CC1CC=C(c2ccc(=O)n(CC(=O)Nc3ccc4cncnc4c3)n2)CC1` (racemic) [Example 356], the “Nav1.1 current amplification rate (%)” value in assay [1] (setting [5]) was 378%. In addition, the “Nav1.5 current amplification rate (%)” value in assay [2] (setting [6]) is 34%.

Regarding `CN(C)c1cc(N2CCC3(CCC3)C2)nn(CC(=O)N2CCc3c(N4CCOCC4)cccc32)c1=O` [Example 222], the activation at 1 µM in assay [1] (setting [5]) amounted to 137%; in assay [2] (setting [6]) it was 11%.

`CC1CC=C(c2ccc(=O)n(CC(=O)N3CCC(c4ccccc4)CC3)n2)CC1` (racemic) [Example 256]: the “Nav1.1 current amplification rate (%)” value in assay [1] (setting [7]) turned out to be 36%. The “Nav1.5 current amplification rate (%)” value in assay [2] (setting [8]) is given as −30%.

As for `CC1CC=C(c2ccc(=O)n(CC(=O)N3CCN(c4cncc(C(F)(F)F)c4)CC3)n2)CC1` (racemic) [Example 401], the “Nav1.1 current amplification rate (%)” value in assay [1] (setting [7]) is listed as 286%. In addition, the “Nav1.5 current amplification rate (%)” value in assay [2] (setting [8]) is given as 5%.
